Measured values: patent publication US9126060B2, “Cosmetic use of geranylgeranyl-2-propanol” (SEDERMA, priority 2010, dated 2015)

Tests used:
[1] = Lipidic peroxidation of liposomes by UVA (conjugated dienes at 233 nm); format: biochemical
From the text: Principle: Cell membranes are composed of oxidable phospholipids. Using a cell-free model (unsaturated phospholipids based liposomes) and a reproducible oxidative stress (UVA radiation), it is possible to follow spectrophotometrically (at 233 nm) the formation of early by-products of lipoperoxidation that are conjugated dienes. An anti-lipoperoxidant agent can reduce or even eliminate this phenomenon.

[2] = tested on: decorin; assay: Decorin biosynthesis in fibroblast culture (ELISA); format: cell-based, human; conditions: for Decorin: 3 days, n = 5
Experimental: Principle: Normal human fibroblasts were brought to confluence, then contacted or not with GGP at 3, 5 or 7 ppm for 3 days. After this incubation, decorin content was assayed by ELISA in cell homogenates, and then divided by the number of cells.

[3] = tested on: human dermal fibroblasts; assay: Collagen gel contraction by human dermal fibroblasts cultivated until presenescence; format: cell-based; conditions: for Gel heterogeneity / Gel surface: n = 5
From the text: Principle: Proliferative human dermal fibroblasts were cultivated with or without the GGP over several generations to obtain presenescent cells. A constant number of cells from each case was then included in a collagen gel. The contractile capacity of cells was then followed by using photographs. Quantification by image analysis, focused on the intensity of the contraction (gel surface) and the contraction quality (gel heterogeneity).

[4] = biological target: T1, tyrosinase (Homo sapiens, UniProt P14679); assay: Residual tyrosinase activity in human melanocytes; format: cell-based; conditions: for tyrosinase activity: 5 days, n = 4
T1 construct: endogenous in cells; host or cells: human melanocytes
T1 sequence (P14679 19-529): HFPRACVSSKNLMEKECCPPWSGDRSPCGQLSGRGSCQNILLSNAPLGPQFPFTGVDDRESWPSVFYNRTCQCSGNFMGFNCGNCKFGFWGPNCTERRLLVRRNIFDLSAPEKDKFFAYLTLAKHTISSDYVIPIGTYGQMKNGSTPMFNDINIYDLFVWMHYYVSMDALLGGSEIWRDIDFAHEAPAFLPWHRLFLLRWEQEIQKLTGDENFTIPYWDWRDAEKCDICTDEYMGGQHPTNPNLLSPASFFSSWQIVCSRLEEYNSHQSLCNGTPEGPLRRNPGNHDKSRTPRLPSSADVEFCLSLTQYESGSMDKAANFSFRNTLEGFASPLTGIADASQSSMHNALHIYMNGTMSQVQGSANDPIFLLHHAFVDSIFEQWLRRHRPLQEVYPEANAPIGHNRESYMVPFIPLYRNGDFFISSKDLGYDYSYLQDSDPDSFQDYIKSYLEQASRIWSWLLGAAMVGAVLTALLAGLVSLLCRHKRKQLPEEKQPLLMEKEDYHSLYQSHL
Experimental: (§1) Principle: Human melanocytes are seeded and placed in contact with the GGP for 5 days. After incubation, the residual tyrosinase activity and total melanin content were measured in cell homogenates, and then divided by the number of cells (melanin) or to the protein amount (tyrosinase).

[5] = tested on: human fibroblasts; assay: Lipidic peroxidation of fibroblast cellular membranes after UVA stress (MDA, TBARS method); format: cell-based; conditions: for MDA concentration: post UVA stress
Experimental: Principle: human fibroblasts are grown to confluence and then placed or not in contact with the GGP for 72 hours. Following this contact, the GGP is removed and the cells are exposed to oxidative stress (UVA). After a further incubation with or without the GGP, malonaldehyde (MDA) is determined by the TBARS method (Thiobarbituric Acid Reactive Substances) and the value obtained divided by the amount of cellular protein.

[6] = tested on: human melanocytes; assay: Melanin content of human melanocytes; format: cell-based; conditions: for Melanin content: 5 days, n = 4
Experimental: as §1

[7] = tested on: fibroblasts (FHN); assay: Intracellular peroxide level (DCFH-DA probe) in fibroblasts after SIPS; format: cell-based, human; conditions: 3 ppm
Experimental: Principle: Fibroblasts at confluence contacted or not with the GGP for several days, are subjected to oxidative stress by hydrogen peroxide in the presence or absence of the GGP. This stress is intended to induce premature senescence in cells.
After this initial stress, the cells were detached from the support and returned to culture at low density until confluence. They are then contacted or not with the compound of the invention for 24 hours. At this stage, each set of cultures (with or without the tested compounds) is divided into 2 lots. A first batch (not stressed) is evaluated directly for its concentration of intracellular peroxides (using the probe DCFH-DA). Simultaneously, the other batch (stressed) undergoes a second stress by hydrogen peroxide (weaker than the first) just before being evaluated in the same way regarding the concentration of intracellular peroxides.
The amount of fluorescence measured with this probe is directly proportional to the amount of peroxides present in the cells.

[8] = tested on: collagen I; assay: Collagen I synthesis in presenescent fibroblasts (immunofluorescence, image analysis); format: cell-based, human; conditions: for collagen I: senescent cells, 11 days, n = 20 photos
Experimental: Principle: The collagen I synthesis was monitored in pre-senescent human dermal fibroblasts. These cells were cultured for 11 days with the GGP in a growth medium. Following this incubation, the cell layers were fixed and labeled by immunofluorescence, to visualize the network of collagen I and to quantify by image analysis on photographs. In parallel, quantification was performed on proliferating cells.

[9] = tested on: hyaluronic acid; assay: Hyaluronic acid synthesis in human fibroblasts; format: cell-based; conditions: for hyaluronic acid (AH): 24 hours, n = 5
Experimental: Principle: Human dermal fibroblasts were grown in plate for 24 hours. The cells are then placed in contact or not with GGP for 24 hours. Culture supernatants were collected and assayed for the amount of hyaluronic acid (HA) is then divided by the number of cells present on the layer. TGF-β1 is used as a positive control.

[10] = tested on: β-galactosidase; assay: Cell-free β-galactosidase inhibition check; format: biochemical; conditions: cell-free system

In the case of `CC(C)=CCC/C(C)=C/CC/C(C)=C/CC/C(C)=C/CCC(C)O` (stereo not shown) [GGP, 6,10,14,18-tetramethylnonadeca-5,9,13,17-tetraen-2-ol], the “% of peroxidation inhibition” value ([1]; 8 ppm) is reported as 14%, the “% of peroxidation inhibition” value ([1]; 26 ppm) is reported as 24% and the “% of peroxidation inhibition” value ([1]; 80 ppm) is reported as 75%. For the same compound, the “Change (%) of decorin vs control” value ([2]; 3 ppm) was “+15%; p < 0.03”, the Decorin ([2]; 3 ppm) was 47578 +/− 3587 pg/10^6 cell and the “Change (%) of decorin vs control” value ([2]; 5 ppm) was “+32%; p < 0.01”. For the same compound, the Decorin ([2]; 5 ppm) was 54419 +/− 4697 pg/10^6 cell, the “Change (%) of decorin vs control” value ([2]; 7 ppm) was “+41%; p < 0.01” and the Decorin ([2]; 7 ppm) was 58168 +/− 5912 pg/10^6 cell. For the same compound, the “% change of gel surface vs control” value ([3]; 3 ppm) was −17.5%; p < 0.01, the Gel heterogeneity ([3]; 3 ppm) was 22.9 +/− 4.1 UA and the Gel surface ([3]; 3 ppm) was 6.12 ± 1.94 cm^2. For the same compound, the “% change of gel surface vs control” value ([3]; 5 ppm) was −21.5%; p < 0.01, the Gel heterogeneity ([3]; 5 ppm) was 21.8 +/− 3.6 UA and the Gel surface ([3]; 5 ppm) was 5.82 ± 1.69 cm^2. For the same compound, the “Change (%) of tyrosinase activity vs control” value ([4]; 1 ppm) was −11%; p < 0.05, the tyrosinase activity ([4]; 1 ppm) was 6.196 +/− 0.318 U/μg prot and the “Change (%) of tyrosinase activity vs control” value ([4]; 3 ppm) was −29%; p < 0.01. For the same compound, the tyrosinase activity ([4]; 3 ppm) was 4.956 +/− 0.129 U/μg prot, the “Change (%) of tyrosinase activity vs control” value ([4]; 5 ppm) was −49%; p < 0.01 and the tyrosinase activity ([4]; 5 ppm) was 3.588 +/− 0.248 U/μg prot. The “% Change of MDA vs post-stress control” value ([5]; 3 ppm) was −20%; p < 0.01, the MDA concentration ([5]; 3 ppm) was 881 +/− 36 nM/mg protein and the “% Change of MDA vs post-stress control” value ([5]; 5 ppm) was −34%; p < 0.01. For the same compound, the MDA concentration ([5]; 5 ppm) was 727 +/− 39 nM/mg protein, the “% Change of MDA vs post-stress control” value ([5]; 7 ppm) was −53%; p < 0.01 and the MDA concentration ([5]; 7 ppm) was 515 +/− 11 nM/mg protein. For the same compound, the “Change (%) of melanin content vs control” value ([6]; 1 ppm) was −4%; nsd, the Melanin content ([6]; 1 ppm) was 46.6 +/− 2.4 μg/mL/10^6 cell and the “Change (%) of melanin content vs control” value ([6]; 3 ppm) was −36%; p < 0.01. For the same compound, the Melanin content ([6]; 3 ppm) was 31.3 +/− 1.4 μg/mL/10^6 cell, the “Change (%) of melanin content vs control” value ([6]; 5 ppm) was −59%; p < 0.01 and the Melanin content ([6]; 5 ppm) was 20.2 +/− 1.3 μg/mL/10^6 cell. For the same compound, the Endogen peroxides ([7]; SIPS fibroblasts subjected to a second oxidant stress) was 161 +/− 14 UFA/million of cells, the “% Change/Control of endogen peroxides” value ([7]; after SIPS, not stressed again) was −40%; p < 0.01 and the Endogen peroxides ([7]; after SIPS, not stressed again) was 61.2 +/− 2.6 UFA/million of cells. For the same compound, the “Change (%) of collagen I vs senescent cells” value ([8]; 3 ppm) was “+367%; p < 0.01”, the “collagen I” value ([8]; 3 ppm) was 280 +/− 220 UFA/10^4 cell and the “Change (%) of collagen I vs senescent cells” value ([8]; 5 ppm) was “+483%; p < 0.01”. For the same compound, the “collagen I” value ([8]; 5 ppm) was 350 +/− 290 UFA/10^4 cell, the “% of change of hyaluronic acid vs control” value (“% of change … vs control” below) ([9]; 3 ppm) was “+23%” and the “hyaluronic acid (AH)” value ([9]; 3 ppm) was 5322 +/− 157 ng of AH/10^6 cells. The “% of change … vs control” value ([9]; 5 ppm) was “+33%”, the “hyaluronic acid (AH)” value ([9]; 5 ppm) was 5758 +/− 82 ng of AH/10^6 cells and the “% of change … vs control” value ([9]; 7 ppm) was “+41%”. The “hyaluronic acid (AH)” value ([9]; 7 ppm) was 6101 +/− 320 ng of AH/10^6 cells, the “% of change … vs control” value ([9]; 10 ppm) was “+46%” and the “hyaluronic acid (AH)” value ([9]; 10 ppm) was 6331 +/− 365 ng of AH/10^6 cells. The “inhibition of β-galactosidase” value [10] was “not an inhibitor of β-galactosidase”.
